Data published in patent publication EP0983055B1, “COMPOSITION COMPRISING AN AMINO ACID N-UNDECYLENOYL; APPLICATION IN COSMETICS” (SOCIETE D'EXPLOITATION DE PRODUITS POUR LES INDUSTRIES …, priority 1997, dated 1999).

What was measured:
Staph. aureus = experiment: MIC (CMI) determination in liquid medium; format: cell-based; conditions: pH5, substance alone, 72 h incubation at 30°C
Protocol: (§1) On a déterminé les CMI en milieu liquide, avec un temps d'incubation de 72 heures à 30°C, à […] (bouillon Trypticase soja tamponné), du Lipacide™ UG seul, du conservateur testé seul, ainsi que du mélange des deux produits La comparaison des résultats consignés dans les tableaux suivants fait apparaître nettement une synergie anti-microbienne qui autorise ainsi une réduction de la concentration nécessaires en conservateurs chimique dans les compositions.
(§2) La composition A est diluée dans l'eau pour obtenir la composition A2 contenant 0,05 % en poids d'undécylènoyl glycine et 0,05 % en poids d'octanoyl glycine et la composition A3 contenant 0,125 % en poids d'undécylènoyl glycine et 0,125 % en poids d'octanoyl glycine.
(§3) On obtient les résultats suivants (CMI à pH5).

Aspergillus Niger = experiment: MIC (CMI) determination in liquid medium; format: cell-based; conditions: pH5, substance alone, 72 h incubation at 30°C
Protocol: as §1, §2, §3

SMILES | CMI (Staph. aureus) | CMI (Aspergillus Niger)
CCCCCCCC(=O)NCC(=O)O [octanoyl glycine] | 0,025% | 2,5%
C=CCCCCCCCCC(=O)NCC(=O)O [undécylènoyl glycine] | 0,01% | 0,25%
